pIC50: −log10 of the molar value. Where “and” joins values, the source holds several entries; their conditions need not be identical. Equal entries are not always repeated. Where two headings read alike, the source gives them in different places.
Experiments:
TT cells = assay: Growth inhibition (alamarBlue, 96 h); type: cell-based, human; settings: for raw viability signal (Source Data Fig. 3b-c): replicate sets
MMNK1 cholangiocytes = assay: Growth inhibition (alamarBlue, 96 h); type: cell-based, human; settings: for raw viability signal (Source Data Fig. 3b-c): MMNK, replicates
LC-2/ad cells = assay: Growth inhibition (alamarBlue, 96 h); type: cell-based, human; settings: for raw viability signal (Source Data Fig. 3b-c): LC-2/Ad, replicate sets
Ba/F3 cells = assay: Growth inhibition assay in Ba/F3 cells (CellTiter-Glo, 72 h); type: cell-based

`COc1cc2c(Nc3ccc(Br)cc3F)ncnc2cc1OCC1CCN(C)CC1` [Vandetanib] was tested, and the “raw viability signal (Source Data Fig. 3b-c)” value (“raw viability signal” below) (TT cells; 0.01 nM) was 24130.4 and 28596.3 and 33849.7 and 15452.6, the “raw viability signal” value (TT cells; 0.1 nM) was 23355.5 and 28594.1 and 36565.2 and the “raw viability signal” value (TT cells; 1 nM) was 22374.7 and 27607.6 and 35010.1 and 13701.7. For the same molecule, the “raw viability signal” value (TT cells; 10 nM) was 16858.1 and 26132.6 and 31759.9 and 13240.5 and 11997.4, the “raw viability signal” value (TT cells; 100 nM) was 9840.2 and 25256.2 and 32238.5 and 11048.8 and 6020.05 and the “raw viability signal” value (TT cells; 1000 nM) was 9436.58 and 12629.1 and 19662.7 and 4747.88 and 2242.82. The “raw viability signal” value (TT cells; 10000 nM) was 6954.01 and 10117.3 and 4217.75 and 1470.42, the pIC50 (TT cells; Homo sapiens, read-out: IC50 for Inhibition of Growth (95% CI), alamarBlue, 96 h) was 7.05 and the pIC50 (MMNK1 cholangiocytes; Homo sapiens, read-out: IC50 for Inhibition of Growth (95% CI), MMNK1, alamarBlue, 96 h) was 5.72. For the same molecule, the “raw viability signal” value (MMNK1 cholangiocytes; 0.01 nM) was 15966.6 and 15969.8, the “raw viability signal” value (MMNK1 cholangiocytes; 0.1 nM) was 15836.6 and the “raw viability signal” value (MMNK1 cholangiocytes; 1 nM) was 15572.3. For the same molecule, the “raw viability signal” value (MMNK1 cholangiocytes; 10 nM) was 14924.4 and 14679.1, the “raw viability signal” value (MMNK1 cholangiocytes; 100 nM) was 14912.5 and 14740.1 and the “raw viability signal” value (MMNK1 cholangiocytes; 1000 nM) was 12405.8. The “raw viability signal” value (MMNK1 cholangiocytes; 10000 nM) was 1136.86 and 1108.37, the pIC50 (LC-2/ad cells; Homo sapiens, read-out: IC50 for Inhibition of Growth (95% CI), LC-2/ad, alamarBlue, 96 h) was 7.21 and the “raw viability signal” value (LC-2/ad cells; 0.01 nM) was 12607.4 and 20233.4. For the same molecule, the “raw viability signal” value (LC-2/ad cells; 0.1 nM) was 13108.5 and 20488.5, the “raw viability signal” value (LC-2/ad cells; 1 nM) was 11956.2 and 19814.6 and the “raw viability signal” value (LC-2/ad cells; 10 nM) was 11578.8 and 17158.6. For the same molecule, the “raw viability signal” value (LC-2/ad cells; 100 nM) was 4528.4 and 9691.17, the “raw viability signal” value (LC-2/ad cells; 1000 nM) was 1439.52 and 1771.38 and the “raw viability signal” value (LC-2/ad cells; 10000 nM) was 850.396. The GI50 (Ba/F3 cells; Ba/F3 (parental), replicate Sets 1-3, read-out: GI50) was 7.33 µM and 9.12 µM, the GI50 (Ba/F3 cells; Mus musculus, BaF3, 72 h, Ba/F3, CellTiter-Glo, 72 h, read-out: GI50 value (Mean ± SD)) was 7.49 µM and the GI50 (Ba/F3 cells; Mus musculus, BaF3, Ba/F3 (parental), replicate Sets 1-3, read-out: GI50) was 6.02 µM.
